Measured values taken from PubChem BioAssay (NCI).
Several values for one entry are separate records, joined by “and”; a condition that tells them apart may be missing. Identical values can stand only once.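 The compound was tested at five concentrations on cells cultured in 96-well plates, with a 48-hour exposure period. GI50 = concentration required for 50% inhibition of growth. TGI: total growth inhibition.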

Tests used:
Experiment in all cases: NCI tumour cell line growth inhibition, 48 h
[1] = tested on: RPMI-8226 leukemia
[2] = tested on: MALME-3M melanoma
[3] = tested on: CCRF-CEM leukemia
[4] = tested on: SF-268 CNS
[5] = tested on: OVCAR-8 ovarian
[6] = tested on: NCI-H226 lung
[7] = tested on: NCI-H460 lung
[8] = tested on: A549 NSCLC
[9] = tested on: NCI-H23 lung

Row | Structure (SMILES) | TGI [1] [µM] | TGI [2] [µM] | TGI [3] [µM] | TGI [4] [µM] | TGI [5] [µM] | TGI [6] [µM] | TGI [7] [µM] | TGI [8] [µM] | TGI [9] [µM] | GI50 [1] [µM] | GI50 [2] [µM] | GI50 [4] [µM] | GI50 [5] [µM] | GI50 [7] [µM] | GI50 [8] | GI50 [9] [µM]
1 | COC[C@H](C)N=CN1CCc2ccccc2C1(Cc1ccccc1)Cc1ccccc1 | 38.9 | 24.7 | 56.7 | 45.9 | 28.8 | 37 | 25.9 | > 100 | 39.8 | – | – | – | – | – | – | –
2 | CN1CCN(Cc2cc(NC(=O)c3cccc(C#Cc4cccc5[nH]nc(N)c45)c3)cc(C(F)(F)F)c2)CC1 | 4.62 | 2.69 | – | 3.15 | 3.62 | – | 3.06 | 3.28 | 3.4 | 2.12 | 1.23 | 1.53 | 1.85 | 1.67 | 1.83 µM | 1.72
3 | CCN(CC)CCNc1ccc2nc(C)n3c4ccc(O)cc4c(=O)c1c23 | 6.18 | 16.4 | – | 12 | 3.23 | 2.13 | 1.83 | 1.25 | – | – | – | – | – | – | – | –
4 | CCOC(=O)CNc1nnnn1C1OC(CO)C(O)C1O (stereo unspecified) | > 100 | > 100 | > 100 | > 100 | > 100 | > 100 | > 100 | > 100 | – | – | – | – | – | – | – | –
5 | [O-]c1c2c(nn1-c1ccc(Cl)cc1)c1ccccc1c[n+]2Cc1ccccc1 | > 100 | > 100 | > 100 | > 100 | > 100 | > 100 | > 100 | > 100 | > 100 | – | – | – | – | – | – | –
6 | CCCCCCCCCCCCCB(O)O | – | > 100 | > 100 | > 100 | > 100 | > 100 | > 100 | > 100 | > 100 | – | – | – | – | – | > 100 µM and 48.5 µM | –
7 | c1ccc(N/N=C2\NN=C(c3ccccc3)CS2)cc1 | – | – | 54.9 | 19.8 | 19.7 | > 100 | 51.4 | 22.2 | 52.3 | – | – | – | – | – | – | –
8 | CCCCN(CCCC)CCCn1cnc2ncccc2c1=O | – | > 100 | > 100 | > 100 | > 100 | > 100 | > 100 | > 100 | > 100 | – | – | – | – | – | – | –
9 | COC(=O)C(=O)C(C(=O)C(=O)Nc1cc(C)ccc1C)c1nc2ccc(C(=O)c3ccccc3)cc2[nH]c1=O (stereo unspecified) | > 100 | > 100 | > 100 | > 100 | > 100 | > 100 | – | > 100 | > 100 | – | – | – | – | – | – | –
10 | C[Si](C)(C)C(Sc1ccccc1)(Sc1ccccc1)Sc1ccccc1 | > 100 | – | > 100 | > 100 | > 100 | – | > 100 | > 100 | > 100 | – | – | – | – | – | – | –
11 | COC(=O)/C(=N\NC(N)=O)C(C(=O)C=C(C)C)C(=O)C(=O)Nc1ccc(Cl)c(Cl)c1 (stereo unspecified) | – | > 100 | > 100 | > 100 | > 100 | > 100 | > 100 | > 100 | > 100 | – | – | – | – | – | – | –
12 | CC1C2CC=CC(=O)[C@@]2(C)CCC12OCCO2 (stereo partly specified) | – | > 100 | > 100 | > 100 | > 100 | > 100 | > 100 | > 100 | > 100 | – | – | – | – | – | – | –
13 | CCOCc1cc(=O)c2c(OC)cc3c(c2o1)CCC(C)(C)O3 | – | > 100 | > 100 | – | > 100 | – | > 100 | > 100 | > 100 | – | – | – | – | – | – | –
14 | CC1CC[P+](c2ccccc2)(c2ccccc2)CC1 | > 100 | > 100 | > 100 | – | > 100 | > 100 | > 100 | > 100 | > 100 | – | – | – | – | – | – | –
15 | COc1cc(/C=C2/C(=O)N(C(=O)OCc3ccccc3)C(Cc3cc(OC)c(OC)c(C)c3OC)C(=O)N2Cc2ccccc2)c(OC)c(C)c1OC (stereo unspecified) | > 100 | > 100 | – | > 100 | > 100 | 12.6 | > 100 | > 100 | > 100 | – | – | – | – | – | – | –
16 | C=C(CCCO)[C@@H]1CC[C@@](C)(O)[C@H]1C | > 100 | > 100 | – | – | > 100 | > 100 | > 100 | > 100 | > 100 | – | – | – | – | – | – | –
17 | CCOC1CC2OC(=O)C1C=C2C(=O)OC (stereo unspecified) | 53.9 | 38.5 | 56.6 | > 100 | – | > 100 | > 100 | > 100 | 44.2 | – | – | – | – | – | – | –
18 | CC(=O)O[C@H]1CC2C=CC3C(CCC31)O2 (stereo partly specified) | – | > 100 | > 100 | > 100 | > 100 | – | > 100 | > 100 | > 100 | – | – | – | – | – | – | –
19 | CC(C)C1N2CCCCC2[C@@H]2c3[nH]c4ccccc4c3CCN12 (stereo partly specified) | > 100 | – | > 100 | > 100 | > 100 | – | > 100 | > 100 | > 100 | – | – | – | – | – | – | –
20 | COc1ccc2nc(NC(=O)C(=O)NNC(=O)c3ccncc3)sc2c1 | – | > 100 | > 100 | > 100 | > 100 | > 100 | > 100 | > 100 | > 100 | – | – | – | – | – | – | –
